Like-named read-outs stand apart in the source and are kept apart here.
Key:
Format in all cases: in vivo
[1] = test system: Beet Armyworm (Spodoptera exigua, LAPHEG); test: Bioassays on Beet Armyworm (BAW), 128-well diet tray assay; conditions: Spodoptera exigua
Summary of the method: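 One to five second-instar larvae per well on artificial diet surface-treated with 50 μg/cm^2 test molecule (applied in 90:10 acetone-water, dried), eight wells per compound. Trays held vented at 25° C., 14:10 light-dark for five to seven days; percent mortality averaged over the eight wells.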

[2] = test system: Cabbage Looper (Trichoplusia ni, TRIPNI); test: Bioassays on Cabbage Looper (CL), 128-well diet tray assay; conditions: Trichoplusia ni
Summary of the method: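 Test molecule was dissolved in 90:10 acetone-water, applied to artificial diet at 50 μg/cm^2 and allowed to dry. Second-instar larvae were then added, one to five per well, and trays held at 25° C for five to seven days before mortality was scored and averaged.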

[3] = test system: Green Peach Aphid (Myzus persicae, MYZUPE); test: Bioassays on Green Peach Aphid (GPA), foliar spray on cabbage seedlings; conditions: 72 h
Procedure: Certain molecules disclosed in this document were tested against GPA using procedures described in the following example. In the reporting of the results, the “GPA & YFM Rating Table” was used (See Table Section).
Cabbage seedlings grown in 3-inch pots, with 2-3 small (3-5 cm) true leaves, were used as test substrate. The seedlings were infested with 20-50 GPA (wingless adult and nymph stages) one day prior to chemical application. Four pots with individual seedlings were used for each treatment. Test molecules (2 mg) were dissolved in 2 mL of acetone/methanol (1:1) solvent, forming stock solutions of 1000 ppm test molecule. The stock solutions were diluted 5× with 0.025% Tween 20 in water to obtain the solution at 200 ppm test molecule. A hand-held aspirator-type sprayer was used for spraying a solution to both sides of […] leaves until runoff. Reference plants (solvent check) were sprayed with the diluent only containing 20% by volume of acetone/methanol (1:1) solvent. Treated plants were held in a holding room for three days at approximately 25° C. and ambient relative humidity (RH) prior to grading. Evaluation was conducted by counting the number of live aphids per plant under a microscope. Percent control was measured using Abbott's correction formula (W. S. Abbott, “A Method of Computing the Effectiveness of an Insecticide” J. Econ. Entomol. 18 (1925), pp. 265-267) as follows. Corrected % Control=100*(X−Y)/X where X=No. of live aphids on solvent check plants and Y=No. of live aphids on treated plants. The results are indicated in the table entitled “Table ABC: Biological Results” (See Table Section).

[4] = test system: Yellow Fever Mosquito (Aedes aegypti, AEDSAE); conditions: for YFM rating: Table ABC / ABC-DP rating
Summary of the method: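 Compounds from DMSO master plates (4000 ppm stock) diluted in 90:10 water/acetone, then dispensed into six replicate plates and infested with ~1-day-old Aedes aegypti larvae in liver-powder water. Held covered at room temperature for 3 days; each well scored for larval mortality and graded on a rating scale.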

[5] = Table ABC: Biological Results, species BAW, read-out: BAW
[6] = Table ABC: Biological Results, species CL, read-out: CL
[7] = Table ABC: Biological Results, species GPA, read-out: GPA
[8] = Table ABC: Biological Results, species YFM
[9] = Beet Armyworm, rating class, read-out: BAW
[10] = Cabbage Looper, rating class, read-out: CL
[11] = Green Peach Aphid, rating class, read-out: GPA
[12] = Yellow Fever Mosquito, rating class
[13] = Beet Armyworm, Table ABC / ABC-DP rating, read-out: BAW rating
[14] = Cabbage Looper, Table ABC / ABC-DP rating, read-out: CL rating
[15] = Green Peach Aphid, Table ABC / ABC-DP rating, read-out: GPA rating

| Structure (SMILES) | pest or weed control at 50 µg/cm2 [1, 5] [%] | pest or weed control at 50 µg/cm2 [2, 6] [%] | pest or weed control at 200 µg/mL [3, 7] [%] | YFM [4, 8] | pest or weed control at 50 µg/cm2 [1, 9] [%] | pest or weed control at 50 µg/cm2 [2, 10] [%] | pest or weed control at 200 µg/mL [3, 11] [%] | YFM [4, 12] | further results |
| --- | --- | --- | --- | --- | --- | --- | --- | --- | --- |
| N#Cc1cc(F)ccc1N(Cc1ccccc1)C(=O)c1cc(NC(=O)[C@H]2[C@H](c3cc(Cl)cc(Cl)c3)C2(Cl)Cl)ccc1Cl (relative stereo) [F1099, trans-N-Benzyl-2-chloro-N-(2-cyano-4-fluorophenyl)-5-(2,2-dichloro-3-(3,5-dichlorophenyl)cyclopropane-1-carboxamido)benzamide] | 50 to 100 | 50 to 100 | 0 to 80 | A (80–100) |  |  |  |  |  |
| CC(C)C(=O)Nc1c(F)ccc(NC(=O)c2cc(NC(=O)[C@H]3[C@H](c4ccc(F)c(C(F)(F)F)c4)C3(Cl)Cl)ccc2Cl)c1F [F1483, 2-Chloro-5-((1R,3R)-2,2-dichloro-3-(4-fluoro-3-(trifluoromethyl)phenyl)cyclopropane-1-carboxamido)-N-(2,4-difluoro-3-isobutyramidophenyl)benzamide] |  |  |  |  | 50 to 100 | 50 to 100 | 0 to 80 | A (80–100) |  |
| C[C@H]1CC[C@@H](C(=O)Nc2c(F)ccc(NC(=O)c3cc(NC(=O)[C@H]4[C@H](c5ccc(F)c(C(F)(F)F)c5)C4(Cl)Cl)ccc3Cl)c2F)O1 [F1612, (2S,5S)-N-(3-(2-Chloro-5-((1R,3R)-2,2-dichloro-3-(4-fluoro-3-(trifluoromethyl)phenyl)cyclopropane-1-carboxamido)benzamido)-2,6-difluorophenyl)-5-methyltetrahydrofuran-2-carboxamide] |  |  |  |  | 50 to 100 | 50 to 100 | 0 to 80 | A (80–100) |  |
| O=C(Nc1ccc(F)c(NC(=O)C(F)(F)C(F)(F)F)c1F)c1cc(NC(=O)[C@H]2[C@H](c3ccc(F)c(Cl)c3)C2(Cl)Cl)ccc1Cl [F1696, 2-Chloro-5-((1R,3R)-2,2-dichloro-3-(3-chloro-4-fluorophenyl)cyclopropane-1-carboxamido)-N-(2,4-difluoro-3-(2,2,3,3,3-pentafluoropropanamido)phenyl)benzamide] |  |  |  |  | 50 to 100 | 50 to 100 | 80 to 100 | A (80–100) |  |
| O=C(COC(F)(F)F)Nc1c(F)ccc(NC(=O)c2cc(NC(=O)[C@H]3[C@H](c4ccc(F)c(C(F)(F)F)c4)C3(Cl)Cl)ccc2Cl)c1F [F1742, 2-Chloro-5-((1R,3R)-2,2-dichloro-3-(4-fluoro-3-(trifluoromethyl)phenyl)cyclopropane-1-carboxamido)-N-(2,4-difluoro-3-(2-(trifluoromethoxy)acetamido)phenyl)benzamide] |  |  |  |  | 50 to 100 | 50 to 100 | 0 to 80 | A (80–100) |  |
| O=C(Nc1ccc(F)c(NC(=O)C(F)F)c1F)c1cc(NC(=O)[C@H]2[C@H](c3ccc(Cl)c(C(F)(F)F)c3)C2(Cl)Cl)ccc1Cl [F1657, 2-Chloro-5-((1R,3R)-2,2-dichloro-3-(4-chloro-3-(trifluoromethyl)phenyl)cyclopropane-1-carboxamido)-N-(3-(2,2-difluoroacetamido)-2,4-difluorophenyl)benzamide] |  |  |  |  | 50 to 100 | 50 to 100 | 80 to 100 | A (80–100) |  |
| CCOC(C)C(=O)Nc1c(F)ccc(NC(=O)c2cc(NC(=O)[C@H]3[C@H](c4ccc(F)c(C(F)(F)F)c4)C3(Cl)Cl)ccc2Cl)c1F (stereo partly drawn) [F1364, 2-Chloro-5-((1R,3R)-2,2-dichloro-3-(4-fluoro-3-(trifluoromethyl)phenyl)cyclopropane-1-carboxamido)-N-(3-(2-ethoxypropanamido)-2,4-difluorophenyl)benzamide] | 50 to 100 | 50 to 100 | 0 to 80 | A (80–100) |  |  |  |  |  |
| CC(Cl)C(=O)Nc1c(F)ccc(NC(=O)c2cc(NC(=O)[C@H]3[C@H](c4ccc(F)c(C(F)(F)F)c4)C3(Cl)Cl)ccc2Cl)c1F (stereo partly drawn) [F1667, 2-Chloro-N-(3-(2-chloropropanamido)-2,4-difluorophenyl)-5-((1R,3R)-2,2-dichloro-3-(4-fluoro-3-(trifluoromethyl)phenyl)cyclopropane-1-carboxamido)benzamide] |  |  |  |  | 50 to 100 | 50 to 100 | 0 to 80 | B (More than 0 – Less than 80) |  |
| CCCNC(=O)c1c(F)ccc(NC(=O)[C@H]2[C@H](c3ccc(F)c(Cl)c3)C2(Cl)Cl)c1F (relative stereo) [F2021, trans-3-(2,2-Dichloro-3-(3-chloro-4-fluorophenyl)cyclopropane-1-carboxamido)-2,6-difluoro-N-propylbenzamide] |  |  |  |  |  |  |  |  | pest or weed control at 50 µg/cm2 [1, 13]: 50 to 100%; pest or weed control at 50 µg/cm2 [2, 14]: 50 to 100%; pest or weed control at 200 µg/mL [3, 15]: 80 to 100%; YFM rating ([4]; Yellow Fever Mosquito): A (80–100) |
| Cc1c(NC(=O)c2cc(NC(=O)[C@H]3[C@H](c4cc(Cl)cc(Cl)c4)C3(Cl)Cl)ccc2Cl)ccc([N+](=O)[O-])c1C (relative stereo) [F1180, trans-2-chloro-5-(2,2-dichloro-3-(3,5-dichlorophenyl)cyclopropane-1-carboxamido)-N-(2,3-dimethyl-4-nitrophenyl)benzamide] | 50 to 100 | 50 to 100 | 0 to 80 | A (80–100) |  |  |  |  |  |
| O=C(Nc1ccc(F)c(NC(=O)C(F)(F)Cl)c1F)c1cc(NC(=O)[C@H]2[C@H](c3ccc(Cl)c(Cl)c3)C2(Cl)Cl)ccc1Cl [F1248, 2-Chloro-N-(3-(2-chloro-2,2-difluoroacetamido)-2,4-difluorophenyl)-5-((1R,3R)-2,2-dichloro-3-(3,4-dichlorophenyl)cyclopropane-1-carboxamido)benzamide] | 50 to 100 | 50 to 100 | 80 to 100 | A (80–100) |  |  |  |  |  |
| O=C(NCCF)c1c(Cl)ccc(NC(=O)[C@H]2[C@H](c3ccc(F)c(Cl)c3)C2(Cl)Cl)c1Cl (relative stereo) [F2025, trans-2,6-Dichloro-3-(2,2-dichloro-3-(3-chloro-4-fluorophenyl)cyclopropane-1-carboxamido)-N-(2-fluoroethyl)benzamide] |  |  |  |  |  |  |  |  | pest or weed control at 50 µg/cm2 [1, 13]: 50 to 100%; pest or weed control at 50 µg/cm2 [2, 14]: 50 to 100%; pest or weed control at 200 µg/mL [3, 15]: 0 to 80%; YFM rating ([4]; Yellow Fever Mosquito): A (80–100) |
| CCCC(=O)Nc1c(F)ccc(NC(=O)c2cc(NC(=O)[C@H]3[C@H](c4ccc(F)c(Cl)c4)C3(Cl)Cl)ccc2Cl)c1F [F1705, N-(3-Butyramido-2,4-difluorophenyl)-2-chloro-5-((1R,3R)-2,2-dichloro-3-(3-chloro-4-fluorophenyl)cyclopropane-1-carboxamido)benzamide] |  |  |  |  | 50 to 100 | 50 to 100 | 80 to 100 | B (More than 0 – Less than 80) |  |
| O=C(Nc1ccc(F)cc1F)c1cc(NC(=O)[C@H]2[C@H](c3cc(Cl)c(Cl)c(C(F)(F)F)c3)C2(Cl)Cl)ccc1Cl (relative stereo) [F1147, trans-2-Chloro-5-(2,2-dichloro-3-(3,4-dichloro-5-(trifluoromethyl)phenyl)cyclopropane-1-carboxamido)-N-(2,4-difluorophenyl)benzamide] | 50 to 100 | 50 to 100 | 80 to 100 | A (80–100) |  |  |  |  |  |
| Cc1c(Cl)cc(NC(=O)[C@H]2[C@H](c3ccc(F)c(Cl)c3)C2(Cl)Cl)cc1C(=O)NCC(F)(F)F (relative stereo) [F2042, trans-3-Chloro-5-(2,2-dichloro-3-(3-chloro-4-fluorophenyl)cyclopropane-1-carboxamido)-2-methyl-N-(2,2,2-trifluoroethyl)benzamide] |  |  |  |  |  |  |  |  | pest or weed control at 50 µg/cm2 [1, 13]: 50 to 100%; pest or weed control at 50 µg/cm2 [2, 14]: 50 to 100%; pest or weed control at 200 µg/mL [3, 15]: 80 to 100%; YFM rating ([4]; Yellow Fever Mosquito): A (80–100) |
